This note sets out measurements from PMC7496931, “Activation of Sirtuin 2 Inhibitors Employing Photoswitchable Geometry and Aqueous Solubility” (Chemmedchem, 2020).

A short description of the series: Reductive stability in the presence of glutathione (HPLC). Format: physicochemical. The settings on record: GSH 5 mM, 24 h, ambient temperature, HPLC analysis. As for the experimental part: Reductive stability of 15 c, 15 f and 20 a in the presence of the cellular reductant glutathione (5 mM) was confirmed by HPLC analysis (Figure S5, Table S2). For the cell‐based activity assay, we illuminated the compounds solved in DMSO with UV light (365 nm) prior to incubation with the cells. […] As expected, 15 c and 15 f increased the levels of acetylated lysines H3K18 and H3K56, which are both affirmed substrates of Sirt2. In addition, we found H4K8 hyperacetylation even though this site is usually not affected by sirtuin catalysed deacetylation, indicating a further mode of action. […] In Figure 6, we show the relative results, whereby the acetylation product was related to total target protein and to the vehicle control. Again, we found an increase in acetylated histones induced by 15 c and 15 f which proves activity of these two compounds in living cells.
Glutathione (GSH) is able to reduce certain azobenzenes yielding the respective hydrazines.
Therefore, we determined the reductive stability of 15c, 15f and 20a prior to examination of the biological activity in a cell-based assay. […]
Table S2: Relative percentages (%) of GSH and the respective photoisomers extracted from the HPLC analysis. Samples were analyzed right after addition of GSH (0 h) and after 24 h of incubation at ambient temperature. […]
Fluorescence-Based Activity Assay (ZMAL-Assay)
The influence of the synthesized compounds on the deacetylase activity of the class I sirtuins Sirt1–3 was determined in a homogenous fluorescence-based enzyme assay, using the artificial substrate Z-(Ac)Lys-AMC (ZMAL). […]
The latter is subsequently cleaved by tryptic digestion, releasing 7-amino-4-methylcoumarin (AMC), excitation of which leads to a fluorescent read out (λex=390 nm; λem=460 nm). […]
contribute to the fluorescence signal. Therefore, the fluorescence intensity is proportional to the activity of the respective sirtuin.
After subtraction of the blank fluorescence signal (without enzyme) from the signal of the respective probe, the residual signal intensity is related to a 100 % conversion control (AMC),

With `CC(C)(C)OC(=O)NCc1ccc(/N=N/c2cncc(C(N)=O)c2)cc1` [15 c], the “Reductive stability in the presence of glutathione” value (“Reductive stability in the presence” for short) is “confirmed”.

Turning to `CCCCCCCCCC(=O)NCc1ccc(/N=N/c2cncc(C(N)=O)c2)cc1` [15 f], the “Reductive stability in the presence” value is “confirmed”.

For `NC(=O)c1cncc(OCc2cccc(/N=N/c3ccc(OCc4ccccc4)cc3)c2)c1` [20 a], the “Reductive stability in the presence” value is reported as “confirmed”.
